Like-named read-outs stand apart in the source and are kept apart here.
What was measured:
NF-kB = NF-kB luciferase reporter assay (HepG2 NF-kB-Luc reporter cells, IL-1β stimulated); assay type: cell-based, human; settings: for IC50: Homo sapiens; for % IC50 relative to Celastrol: relative to celastrol (compound 1)
Procedure: HepG2 NF-kB-Luc reporter cells stimulated with IL-1β (20 ng/ml) and the relative NF-kB luciferase activity (RLU) was determined for each of celastrol (compound 1) and each of the exemplary derivative compounds at the following eight point concentrations: 10 μM, 5 μM, 2.5 μM, 1.25 μM, 0.63 μM, 0.31 μM, 0.16 μM, 0.016 μM, and 0 μM). Assay values were plotted (not shown) and IC50 inhibitory concentrations were calculated after normalization using Prizm 9.0 software.
This example illustrates a study of the anti-inflammatory potential of an exemplary celastrol derivative of the present disclosure (compound 22) using an NF-κB luciferase promoter reporter gene assay in the human liver cancer cell line, HepG2.
NF-kB luciferase reporter assay: The celastrol derivative, compound 22 (prepared as described in Example 13) and the parent molecule, compound 1 (celastrol), were freshly dissolved in DMSO. HepG2 NF-κB reporter cells were seeded (2.5×10^4/well) in 96-well plate and then pre-treated with either compound 22 or compound 1 at the 8-point concentrations of 10, 5, 2.5, 1.25, 0.63, 0.31, 0.16, 0.016, or 0 μM, respectively, and the NF-κB promoter was activated by adding IL-1β (20 ng/ml) to the cells. After 18 hours, the cells were harvested by adding the 1× passive cell lysis buffer (Promega) and followed by measurement of the relative NF-kB luciferase activity (RLU) using GloMax discover microplate reader (Promega). Inhibitory concentrations (IC50) after normalization using Prizm 9.0 software.

TNF-α secretion [1] = assay: Secreted TNF-α in conditioned media of BMDC (ELISA), LPS+ATP or LPS+Nigericin; assay type: cell-based; settings: 63-500 nM, FIG. 2C
Procedure: FIG. 2A depicts western blot images showing the relative NLRP3 inflammasome activity of the compounds 22 (CLM-022) and 1 (CLM-001) by detecting the level of cellular ASC complex and the mature form of IL-1β (15 kDa) in a conditioned media of BMDCs treated with LPS (100 ng/ml) for 3 hours and then the compound at 50 nM, 100 nM, and 500 nM concentration for 30 min, followed by ATP or Nigericin. ASC monomer and β-Actin proteins were used as controls. FIG. 2B depict plots of results showing secreted IL-1β levels measured by ELISA using conditioned media of BMDC treated with the compound 22 or compound 1 at 63 nM, 125 nM, 250 nM, and 500 nM, under NLRP3 inflammasome activation induced either by LPS+ATP or LPS+Nigericin. FIG. 2C depict plots of results showing secreted TNF-α levels measured by ELISA using conditioned media of BMDC treated with the compound 22 or compound 1 at 63 nM, 125 nM, 250 nM, and 500 nM, under NLRP3 inflammasome activation induced either by LPS+ATP or LPS+Nigericin.
3. The secreted form of TNF-α, a NLRP3 inflammasome independent cytokine, induced by LPS+ATP or LPS+Nigericin were measured by ELISA assay using the conditioned media of BMDC treated with compound 1 (CLM-1) or compound 22 (CLM-022) at concentrations of 63, 125, 250, 500 nM under NLRP3 inflammasome activation induced either by LPS+ATP or LPS+Nigericin.

[2] = system: LPS-induced acute inflammation; assay: LPS-induced septic shock mouse model, cytokine expression in serum (ELISA) and colonic mucosa (qPCR); assay type: in vivo; settings: 1 mg/kg i.p. 1 hour before LPS (25 mg/kg, i.p.), 4 hours post LPS, ELISA; FIG. 4A
Procedure: FIG. 4A, and FIG. 4B depict results showing that compound 22 (CLM-022) decreased the production of pro-inflammatory cytokines in the LPS-induced septic shock mouse model as described in Example 17. Compound 1 (CLM-001) and compound 22 (CLM-022) (1 mg/kg) injected intraperitoneally 1 hour prior to septic shock induction by administering sublethal dose of LPS (25 mg/kg, i.p.), mice were sacrificed 4 hours post LPS injection, and subjected to measurement of inflammatory cytokine expression. FIG. 4A depicts plot of data showing that the level of TNF-α decreased in the serum of compound 1 and compound 22 treated mice.
This example illustrates a study of the inhibitory function of an exemplary celastrol derivative of the present disclosure (compound 22) against LPS-induced acute inflammation in vivo, we set up LPS-induced septic shock mouse model (Yu et al., 2017) and detected the expression levels of inflammatory cytokines in colon.
Mice (n=3 per group) were administered intraperitoneally (i.p.) with control vehicle, compound 1 (1 mg/kg), or compound 22 (1 mg/kg). After 1 hour, mice were administered by i.p. injection a sublethal dose of LPS (25 mg/kg). Four hours later, the mice were subjected to blood collection and harvesting colonic mucosa by scraping colon. Cytokine expression was measured by conducting ELISA (Cat #900-T54, PeproTech) for TNF-α on blood serum samples and qPCR for the cytokines, IL-1 (TaqMan, Mm00434228), IL-6 (TaqMan, Mm00446190), TNF-α (TaqMan, 00443258), iNOS (TaqMan, 00440502), on colonic mucosa samples.

NLRP3 inflammasome [3] = assay: IL-1β secretion in BMDMs, LPS + Nigericin; assay type: cell-based, mouse; settings: Mus musculus, BMDM, LPS (100 ng/ml) + Nigericin (10 μM), 0-10 μM, FIG. 5A, read-out: IC50 for inhibition of IL-1β secretion (normalized)
Procedure: (§1) This example illustrates a comparative study of CLM-022 and MCC950 in inhibiting NLRP3 inflammasome activity in mouse and human macrophages.
(§2) Bone marrow-derived macrophages (BMDMs) were treated with LPS (100 ng/ml) for 3 hours to induce the expression of inflammatory genes, including TNF-α, NLRP3, and pro-IL-1β. Subsequently, the BMDMs were treated with CLM-022 or MCC950 in a dose range of 0-10 μM for 30 minutes. Then, to fully activate NLRP3-dependent inflammasome activity and cytokine secretion, Nigericin (10 μM) was added to the BMDMs for an additional 30 minutes.

TNF-α secretion [4] = assay: TNF-α secretion in BMDMs, LPS + Nigericin; assay type: cell-based, mouse; settings: FIG. 5B
Procedure: as §1, §2

NLRP3 inflammasome [5] = assay: IL-1β secretion in THP-1 macrophages, LPS + Nigericin; assay type: cell-based; settings: human THP-1 macrophages, LPS (100 ng/ml) + Nigericin (10 μM), 0-10 μM; FIG. 5C; read-out: IC50 for inhibition of IL-1β secretion
Procedure: as §1
To confirm the inhibitory effect of CLM-022 in human macrophages, THP-1 cells, a human leukemia monocytic cell line, were differentiated into macrophages using phorbol 12-myristate-13-acetate (PMA, 100 ng/ml) treatment for one day. The THP-1 macrophages were then treated with LPS (100 ng/ml) for 3 hours to induce the expression of inflammatory genes. Subsequently, the THP-1 cells were treated with CLM-022 or MCC950 in a dose range of 0-10 μM for 30 minutes. Then, to fully activate NLRP3-dependent inflammasome activity, Nigericin (10 μM) was added to the THP-1 cells for an additional 60 min.

THP-1 cells [6] = assay: THP-1 cell viability (inflammasome-induced pyroptosis), live/dead staining and flow cytometry; assay type: cell-based, human; settings: THP-1, LPS and Nigericin; FIG. 7A
Excerpt: (§3) Pyroptosis, a pro-inflammatory form of cell death, is triggered by the activation of NLRP3 inflammasome components (GSDMD and Caspase-1), leading to the release of pro-inflammatory cytokines IL-1β and IL-18, as well as damage-associated molecular patterns (DAMPs). This process elicits a cascade of inflammatory responses, which can persist if dysregulated in affected tissues. Given the significant inhibitory potential of CLM-022 against NLRP3 inflammasome and IL-1β secretion, it was proposed that CLM-022 could effectively enhance cell viability by inhibiting pyroptosis in the context of inflammation and inflammasome activation. This example illustrates a comparative study of the abilities of CLM-022 and MCC950 to protect THP-1 cells from inflammasome-induced pyroptosis.
(§4) After LPS and Nigericin treatment, THP-1 cells were treated with either CLM-022 or MCC950 over a dosage range of 0 μM to 10 μM and cell viability was determined by impermeant live/dead staining dye and flow cytometric analysis. Additionally, NLRP3 inflammasome-induced cytotoxicity was investigated by measuring the level of LDH in the conditioned media after the CLM-022 and MCC950 treatments. Further, Western blotting of samples from the THP-1 cell viability assays was carried out to determine levels of the pyroptosis-mediating molecules, GSDMD and Caspase-1.

THP-1 cells [7] = assay: LDH release (NLRP3 inflammasome-induced cytotoxicity) in THP-1 cells; assay type: cell-based, human; settings: THP-1, LPS and Nigericin, FIG. 7B
Excerpt: as §3, §4

GSDMD and Caspase-1 = GSDMD and Caspase-1 cleavage in THP-1 cells (western blot); assay type: cell-based; settings: Homo sapiens; THP-1, western blot; FIG. 7C; read-out: concentration inhibiting GSDMD and Caspase-1 cleavage
Excerpt: as §3, §4

[8] = HepG2 NF-kB-Luc reporter cells, IL-1β (20 ng/ml), Example 13, read-out: NF-kB IC50

**Q.** Which IC50 (NF-kB; HepG2, IL-1β (20 ng/ml), 18 hours, normalized, Example 14, FIG. 1B, read-out: IC50 for NF-κB promoter activity) does the source give for `CC1=C(O)C(=O)C=C2C1=CC=C1[C@@]2(C)CC[C@@]2(C)[C@@H]3C[C@](C)(C(=O)O)CC[C@]3(C)CC[C@]12C` [Compound 1, (2R,4aS,6aR,6aS,14aS,14bR)-10-hydroxy-2,4a,6a,6a,9,14a-hexamethyl-11-oxo-1,3,4,5,6,13,14,14b-octahydropicene-2-carboxylic acid, reference compound] here?
**A.** The IC50 was 528 nM.

**Q.** And the IC50 (NF-kB; [8])?
**A.** The IC50 was 667 nM.

**Q.** What about the “suppression of TNF-α secretion” value (TNF-α secretion [1]) of the same compound?
**A.** Its value is “no significant suppressive effect on TNF-α inflammatory cytokine secretion”.

**Q.** And the “level of TNF-α in serum” value [2]?
**A.** Its value is “decreased”.

**Q.** What does the source list for `CC1=C(O)C(=O)C=C2C1=CC=C1[C@@]2(C)CC[C@@]2(C)C3C[C@](C)(NC(=O)C(=O)N4CCN(C)CC4)CC[C@]3(C)CC[C@]12C` (stereo partly drawn) [Compound 14, N-((2R,4aS,6aS,12bR,14aS)-10-hydroxy-2,4a,6a,9,12b,14a-hexamethyl-11-oxo-1,2,3,4,4a,5,6,6a,11,12b,13,14,14a,14b-tetradecahydropicen-2-yl)-2-(4-methylpiperazin-1-yl)-2-oxoacetamide]?
**A.** IC50 (NF-kB; [8]): 1160 nM; % IC50 relative to Celastrol (NF-kB): 115%

**Q.** What does the source list for `CC1=C(O)C(=O)C=C2C1=CC=C1[C@@]2(C)CC[C@@]2(C)C3C[C@](C)(NC(=O)C(=O)N4CC5(COC5)C4)CC[C@]3(C)CC[C@]12C` (stereo partly drawn) [Compound 15, N-((2R,4aS,6aS,12bR,14aS)-10-hydroxy-2,4a,6a,9,12b,14a-hexamethyl-11-oxo-1,2,3,4,4a,5,6,6a,11,12b,13,14,14a,14b-tetradecahydropicen-2-yl)-2-oxo-2-(2-oxa-6-azaspiro[3.3]heptan-6-yl)acetamide]?
**A.** IC50 (NF-kB; [8]): 942 nM; % IC50 relative to Celastrol (NF-kB): 93%

**Q.** Which IC50 (NF-kB; [8]) does the source give for `CC1=C(O)C(=O)C=C2C1=CC=C1[C@@]2(C)CC[C@@]2(C)C3C[C@](C)(N(C)C(=O)C(=O)N4CCN(C)CC4)CC[C@]3(C)CC[C@]12C` (stereo partly drawn) [Compound 16, N-((2R,4aS,6aS,12bR,14aS)-10-hydroxy-2,4a,6a,9,12b,14a-hexamethyl-11-oxo-1,2,3,4,4a,5,6,6a,11,12b,13,14,14a,14b-tetradecahydropicen-2-yl)-N-methyl-2-(4-methylpiperazin-1-yl)-2-oxoacetamide] here?
**A.** The IC50 was 1150 nM.

**Q.** What about the “% IC50 relative to Celastrol” value (NF-kB) of the same compound?
**A.** The value was 114%.

**Q.** What does the source list for `CC1=C(O)C(=O)C=C2C1=CC=C1[C@@]2(C)CC[C@@]2(C)C3C[C@](C)(NC(=O)C(=O)NC4CN(C)C4)CC[C@]3(C)CC[C@]12C` (stereo partly drawn) [Compound 17, N1-((2R,4aS,6aS,12bR,14aS)-10-hydroxy-2,4a,6a,9,12b,14a-hexamethyl-11-oxo-1,2,3,4,4a,5,6,6a,11,12b,13,14,14a,14b-tetradecahydropicen-2-yl)-N2-(1-methylazetidin-3-yl)oxalamide]?
**A.** IC50 (NF-kB; [8]): 1640 nM; % IC50 relative to Celastrol (NF-kB): 163%

**Q.** With `CC(C)(O)c1coc(S(=O)(=O)NC(=O)Nc2c3c(cc4c2CCC4)CCC3)c1` [MCC950, reference compound] as the compound, how does the IC50 (NLRP3 inflammasome [3]) read?
**A.** The IC50 was 70 nM.

**Q.** And the “suppression of TNF-α secretion” value (TNF-α secretion [4])?
**A.** The value was “neither CLM-022 nor MCC950 suppressed TNF-α secretion”.

**Q.** And the IC50 (NLRP3 inflammasome [5])?
**A.** The IC50 was 1250 nM.

**Q.** And the “cell viability (in words)” value (THP-1 cells [6])?
**A.** The value was “A similar effect”.

**Q.** And the IC50 (THP-1 cells [7]; Homo sapiens, 0 μM to 10 μM, read-out: IC50 for LDH release (normalized))?
**A.** Its IC50 is 124 nM.

**Q.** What about the “inhibition of LDH release” value (THP-1 cells [7]) of the same compound?
**A.** Its value is “significantly inhibited release of LDH”.

**Q.** And the minimal effective concentration (GSDMD and Caspase-1)?
**A.** Its minimal effective concentration is 1 µM.
